Patent publication US6881705B2, “Fungicidal composition and use of this composition for controlling plant diseases” (Bayer Cropscience S.A., priority 2001, dated 2005)

What was measured:
[1] = test system: Geotrichum candidum; assay: in vitro control of Geotrichum candidum on PDA medium (colony diameter in microtitre plate wells); format: cell-based; settings: 60 ppm in PDA medium; for Radial growth of the fungus (mm): 22° C., untreated control 15 mm; for Efficacy (%): colony diameter versus untreated control
Procedure: This example gives an illustration of the efficacy of a composition according to the invention for controlling Geotrichum candidum, this trial was carried out in vitro. The fungicidal compositions are used in solution at the doses detailed in Table 1. […] 1 day later, a microdrop of an aqueous suspension of Geotrichum candidum spores, supplemented with 400 ppm of Tween 20, is brought to the surface of each well of the microtitre plate. The cultures are then incubated at 22° C., 60% relative humidity, under subdued light until the control culture (without fungicide) has covered the entire surface of the well. The diameter of each colony is then measured and, in comparison with the untreated control, a percentage efficacy is calculated using the following formula: (diameter of the control−diameter of the trial)/diameter of the control×100.

[2] = test system: Gloeosporium spp.; assay: in vivo trial combating Gloeosporium spp. on apples (Golden variety, preventive sprinkling)
Procedure: This example proposes to give an illustration of the efficacy of a composition according to the invention for combating Gloeosporium spp. on apples, this trial was carried out in vivo. The fungicidal compositions are used in solution at the doses detailed in Table 2. Apples of the Golden variety, untreated after harvest, are treated by sprinkling a fungicidal solution up to the run-off limit at the doses described in Table 2 of results (8 apples per product). 6 hours later, the fruit are inoculated by sprinkling an aqueous suspension at 150 000 spores/ml of Gloeosporium spp. obtained from a preculture on PDA medium. This inoculation by sprinkling is carried out up to the run-off limit. The fruit are then stored in the dark at 20° C., 100% relative humidity and the scores for the disease start 3 weeks later, for a period of 2 weeks. The number of fruit affected by rot are counted and, in comparison with the untreated control, a percentage efficacy is calculated using the following formula: […].

Structure (SMILES): C=CCOC(Cn1ccnc1)c1ccc(Cl)cc1Cl (stereo not drawn) [Imazalil, imazalil]
- Radial growth of the fungus (mm) [1]: 14 mm
- Efficacy (%) [1]: 7%
- Efficacy (%) ([2]; 375 ppm, sprinkled on Golden apples 6 hours before inoculation, rot versus untreated control): −29.2%

Structure (SMILES): Cc1cc(C)nc(Nc2ccccc2)n1 [Pyrimethanil, pyrimethanil]
- Radial growth of the fungus (mm) [1]: 15 mm
- Efficacy (%) [1]: 0%
- Efficacy (%) ([2]; 75 ppm): 14.9%
